“Also recorded” adds a separate entry of the source.
Columns and labels:
[1] = test system: Renca cells (renal cell carcinoma); assay: Effect of the isomers on in vivo tumour growth in mice challenged with Renca cells; settings: for Inhibitory effect on in vivo Renca tumour growth (conclusion in words): 260 ng i.p. on days 6, 7 and 14, Balb/c mice; for Tumour surface, overall values (Mean) / Tumour surface, overall values (Median) / Tumour volume, overall values (Mean) / Tumour volume, overall values (Median): 260 ng/mouse i.p. on days 6, 7 and 14, s.c. Renca in Balb/c mice
Source text: This assay was made in order to check the effect of each stereoisomer on in vivo tumour growth in mice challenged with Renca cells. Their effect was compared with placebo. The stereoisomers assayed were: • Isomer 1: 3R,5S-1-(3-Amino-5-carboxy-2-oxopyrrolidin-3-ylmethyl)pyridinium bromide hidrobromide (9b) • Isomer 2: 3R,5R-1-(3-Amino-5-carboxy-2-oxopyrrolidin-3-ylmethyl)pyridinium bromide hidrobromide (9c) • Isomer 3: 3S,5S-1-(3-Amino-5-carboxy-2-oxopyrrolidin-3-ylmethyl)pyridinium bromide hidrobromide (9a) • Isomer 4: 3 S,5R-1-(3-Amino-5-carboxy-2-oxopyrrolidin-3-ylmethyl)pyridinium bromide hidrobromide (9d)
Renca is a renal cell carcinoma originated in Balb/c mouse strain, and therefore syngeneic in mice with Balb/c genetic background [Melder R J et al., Cancer Immunol. Immunother., 2005, 54:535-547; Felluga B et al., 1969, J. Natl. Cancer Inst. 43:319-333]. Renca is considered a moderate immunogenic tumour and used as suitable model for testing immunointervention approaches [Salup R R, et al., 1992, The Journal of Urology, 147:1120-1123].
Renca cells (CLS, Eppelheim, Germany) were maintained in vitro by serial passages every 3-4 days. Cultures were performed with RPMI medium medium (RPMI, 10% foetal calf serum, 2 mM L-glutamine, non essential amino acids, 1 mM sodium pyruvate, 20 mM HEPES, 80 μg/mL gentamycin; all of them were purchased from Sigma, St. Louis, Mo., USA) by seeding 5×10^6 cells onto 75 cm^2 culture flasks. Tumour cells collected from 48 hour cultures upon trypsinization (Sigma, St. Louis, Mo., USA) were used as source of Renca cells for the studies described below.
Each isomer was tested at the dose levels of 260 ng administered on days 6, 7 and 14 after tumour inoculation.
The treatments were given by intraperitoneal route. The volume inoculated was 0.2 mL/animal. This route was chosen because it is the one described in the original method [Perez S, et al., 2003, Clinical Cancer Research. 9:5776-5785].
Tumours were established by subcutaneous inoculation in the right hind flank. Mice (Balb/c) were inoculated with 0.2 mL containing 105 viable Renca cells. The day of subcutaneous inoculation will be considered Day 0 of the test.
Balb/c mice inoculated with Renca cells were distributed into 5 experimental groups:
Mice were observed daily and the tumour size recorded twice a week. This was carried out by measuring two perpendicular diameters (L/W) with a calliper. These measures were used to obtain both tumour surface and volume:
Tumour surface=L×W (mm^2)
Tumour volume=L×W^2×½(mm^3)
Results were expressed as single values and/or as the mean±SD or median from each experimental group.
A case-control study was performed with treated and control mice in order to determine whether differences between isomers and administration of placebo were present. The data obtained (tumoral surface and volume) were tested for Normal distribution within the groups—Kolmogorov Smimov test p<0,05—. […] The U-test of Mann Withney was chosen for being one of the better known non-parametrical tests, anyway, results for this test are equivalent both to those of Wilcoxon's sum of ranges and Kruskal-Wallis two-groups test.
Due to the high dispersion of data, outlayers (animals beyond percentile 25 or above percentile 75 for tumour surface at day 25) were excluded of the study.

[2] = Solubility observed during purification attempts; format: physicochemical; settings: mixture of stereoisomers
Source text: Also, its immediate precursor BLAS-320(Ac) (1-(1-acetyl-3-acetylamino-5-carboxy-2-oxopyrrolidin-3-ylmethyl)pyridinium acetate) [drawing 7] was synthesized using different procedures.

[3] = day 11 after tumour inoculation
[4] = day 14 after tumour inoculation
[5] = day 18 after tumour inoculation
[6] = day 21 after tumour inoculation
[7] = day 25 after tumour inoculation

Row | SMILES | Tumour surface, overall values (Mean) ([1]; day 0 after tumour inoculation) | Tumour surface, overall values (Median) ([1]; day 0 after tumour inoculation) | Tumour volume, overall values (Mean) ([1]; day 0 after tumour inoculation) | Tumour volume, overall values (Median) ([1]; day 0 after tumour inoculation) | Tumour surface, overall values (Mean) [1, 3] | Tumour surface, overall values (Median) [1, 3] | Tumour volume, overall values (Mean) [1, 3] | Tumour volume, overall values (Median) [1, 3] | Tumour surface, overall values (Mean) [1, 4] | Tumour surface, overall values (Median) [1, 4] | Tumour volume, overall values (Mean) [1, 4] | Tumour volume, overall values (Median) [1, 4] | Tumour surface, overall values (Mean) [1, 5] | Tumour surface, overall values (Median) [1, 5] | Tumour volume, overall values (Mean) [1, 5] | Tumour volume, overall values (Median) [1, 5] | Tumour surface, overall values (Mean) [1, 6] | Tumour surface, overall values (Median) [1, 6] | Tumour volume, overall values (Mean) [1, 6] | Tumour volume, overall values (Median) [1, 6] | also measured
1 | Br.N[C@]1(C[n+]2ccccc2)C[C@H](C(=O)O)NC1=O.[Br-] (single isomer, unassigned; isomer 4) [isomer 4, 3 S,5R-1-(3-Amino-5-carboxy-2-oxopyrrolidin-3-ylmethyl)pyridinium bromide hidrobromide] | 0 mm^2 | 0 mm^2 | 0 mm^3 | 0 mm^3 | 0 mm^2 | 0 mm^2 | 0 mm^3 | 0 mm^3 | 2.87 mm^2 | 0 mm^2 | 4.73 mm^3 | 0 mm^3 | 15.47 mm^2 | 9 mm^2 | 40.67 mm^3 | 13.5 mm^3 | 37.37 mm^2 | 25 mm^2 | 126.42 mm^3 | 62.5 mm^3 | Inhibitory effect on in vivo Renca tumour growth (conclusion in words) [1]: inhibit the in vivo growth of the renal cell carcinoma (Renca); also recorded: highest inhibitory effect on Renca tumour growth; p of differences in Renca tumour growth rate vs. placebo (surface or volume), Mann-Whitney U test ([1]; all days scored after the day 14th of tumour development, 260 ng i.p.): < 0.01; Tumour surface, overall values (Mean) [1, 7]: 81.3 mm^2; Tumour surface, overall values (Median) [1, 7]: 63.5 mm^2; Tumour volume, overall values (Mean) [1, 7]: 372.82 mm^3; Tumour volume, overall values (Median) [1, 7]: 238.25 mm^3
2 | CC(=O)NC1(C[n+]2ccccc2)CC(C(=O)O)N(C(C)=O)C1=O (stereo not drawn) [BLAS-320(Ac), 1-(1-acetyl-3-acetylamino-5-carboxy-2-oxopyrrolidin-3-ylmethyl)pyridinium acetate] |  |  |  |  |  |  |  |  |  |  |  |  |  |  |  |  |  |  |  |  | Solubility (in words) [2]: only soluble in water and methanol
3 | Br.N[C@@]1(C[n+]2ccccc2)C[C@@H](C(=O)O)NC1=O.[Br-] (single isomer, unassigned; isomer 1) [isomer 1, 3R,5S-1-(3-Amino-5-carboxy-2-oxopyrrolidin-3-ylmethyl)pyridinium bromide hidrobromide] | 0 mm^2 | 0 mm^2 | 0 mm^3 | 0 mm^3 | 1.2 mm^2 | 0 mm^2 | 1.73 mm^3 | 0 mm^3 | 14.1 mm^2 | 12.5 mm^2 | 36.88 mm^3 | 22.75 mm^3 | 44.07 mm^2 | 36 mm^2 | 174.37 mm^3 | 108 mm^3 | 86.6 mm^2 | 81 mm^2 | 429.07 mm^3 | 329.25 mm^3 | Tumour surface, overall values (Mean) [1, 7]: 149.97 mm^2; Tumour surface, overall values (Median) [1, 7]: 160.5 mm^2; Tumour volume, overall values (Mean) [1, 7]: 895.58 mm^3; Tumour volume, overall values (Median) [1, 7]: 907.5 mm^3
4 | Br.N[C@]1(C[n+]2ccccc2)C[C@@H](C(=O)O)NC1=O.[Br-] (single isomer, unassigned; isomer 3) [isomer 3, 3S,5S-1-(3-Amino-5-carboxy-2-oxopyrrolidin-3-ylmethyl)pyridinium bromide hidrobromide] | 0 mm^2 | 0 mm^2 | 0 mm^3 | 0 mm^3 | 0.3 mm^2 | 0 mm^2 | 0.28 mm^3 | 0 mm^3 | 7.5 mm^2 | 4 mm^2 | 14.55 mm^3 | 4 mm^3 | 31 mm^2 | 18 mm^2 | 101.4 mm^3 | 36 mm^3 | 64.57 mm^2 | 45.5 mm^2 | 278.15 mm^3 | 148.75 mm^3 | Inhibitory effect on in vivo Renca tumour growth (conclusion in words) [1]: inhibit the in vivo growth of the renal cell carcinoma (Renca); Tumour surface, overall values (Mean) [1, 7]: 106.17 mm^2; Tumour surface, overall values (Median) [1, 7]: 90 mm^2; Tumour volume, overall values (Mean) [1, 7]: 557.18 mm^3; Tumour volume, overall values (Median) [1, 7]: 405 mm^3; p of differences in Renca tumour growth rate vs. placebo (surface or volume), Mann-Whitney U test ([1]; days 18th and 25th of tumour development, 260 ng i.p.): < 0.05
5 | Br.N[C@@]1(C[n+]2ccccc2)C[C@H](C(=O)O)NC1=O.[Br-] (single isomer, unassigned; isomer 2) [isomer 2, 3R,5R-1-(3-Amino-5-carboxy-2-oxopyrrolidin-3-ylmethyl)pyridinium bromide hidrobromide] | 0 mm^2 | 0 mm^2 | 0 mm^3 | 0 mm^3 | 1.6 mm^2 | 0 mm^2 | 2.34 mm^3 | 0 mm^3 | 14.46 mm^2 | 9 mm^2 | 32.05 mm^3 | 13.5 mm^3 | 55.14 mm^2 | 42 mm^2 | 217.43 mm^3 | 126 mm^3 | 96.86 mm^2 | 77 mm^2 | 453.89 mm^3 | 278.75 mm^3 | Tumour surface, overall values (Mean) [1, 7]: 156.53 mm^2; Tumour surface, overall values (Median) [1, 7]: 140 mm^2; Tumour volume, overall values (Mean) [1, 7]: 938.48 mm^3; Tumour volume, overall values (Median) [1, 7]: 613.25 mm^3; Deaths of mice in treatment group ([1]; second week after tumour inoculation, 260 ng i.p., animals excluded): Two mice from isomer 2 group died for unknown causes

From US20070249678A1, “SYNTHESIS AND USES OF PYROGLUTAMIC ACID DERIVATIVES” (Prodimed, S.A., priority 2006, published 2007)
